How the values were obtained:
[1] = Dose-response of Midazolam brain concentration; type: in vivo, rat; settings: rats; doses about 0.6 to about 6 mg/kg; brain concentration 60 minutes after administration
Protocol: In this example, doses of Midazolam between about 0.6 mg/kg and about 6 mg/kg were administered to rats and the concentration of Midazolam in the brain was measured 60 minutes after administration.

[2] = system: New Zealand White female rabbits; test: Nasal cavity irritation and general toxicity of repeated intra-nasal Midazolam
Protocol: Nasal cavity irritation and general toxicity were assessed for repeated intra-nasal applications of Midazolam to rabbits, using a SipNose intra-nasal delivery device. Six New Zealand White female rabbits were used, with the three experimental animals being given two 200 μL doses of Midazolam (5 mg/ml) per day, six hours apart. The three control animals were given four 200 μL doses of saline solution per day, at 3 hour intervals.
The daily dosing was repeated for 10 days, for 11 days' dosage in total. 24 hours after the last dosing, the animals were sacrificed.
The animals were observed once daily until study termination. Shortly before sacrifice, blood was taken for testing.
After sacrifice, gross pathology was performed, examining major tissue and organ systems. Organs (nasal cavity (including olfactory epithelium), nasopharynx, paranasal sinus, trachea, lungs, larynx, brain (olfactory bulbs and hippocampus), heart, olfactory nerve, optic nerve and lacrimal glands) of all animals were harvested and examined. Three cross sections of the skull were taken: (1) in the nose from rostral, (2) behind the incisor teeth and (3) caudal, including the olfactory epithelium labyrinth, as shown in FIG. 85.
Brains were dissected in the olfactory regions and the hippocampus. Lungs were evaluated in both right and left lobes. Tissues were trimmed, embedded in paraffin, sectioned at no more than 5 microns thickness, and stained with Hematoxylin & Eosin (H&E).
In order to alleviate the discomfort an animal might endure during intra-nasal administration, prior to placement the sipNose device, Lidocaine was applied locally in the nasal area.

Structure (SMILES): Cc1ncc2n1-c1ccc(Cl)cc1C(c1ccccc1F)=NC2 [Midazolam]
- dose-response curve of brain concentration [1]: essentially linear
- Amylase (blood chemistry) ([2]; Midazolam group): 240±13.1 IU/L
- all relevant safety parameters (clinical observations, histopathology, ophthalmic examination, haematology, blood analysis) ([2]; Midazolam vs control): no differences were found between the control and study groups
- blood coagulation parameters ([2]; Midazolam vs control group): No differences were detected
- histopathology ([2]; either group): No major histopathological abnormalities were found
- blood chemistry analysis, all results ([2]; repeated intra-nasal Midazolam): within the normal range for the blood of rabbits
- blood hematology analysis ([2]; repeated intra-nasal Midazolam vs saline control): None of the parameters showed any difference between the control group and the study group
- body weight during the study ([2]; two 200 μL doses of Midazolam (5 mg/ml) per day via SipNose, repeated daily): did not exhibit major changes in weight
- finding in frontal nose space ([2]; two animals from the Midazolam group, attributed to device tip): very mild bleeding was detected in the frontal nose space
